Source: US10947199B2, “Spiro and cyclic bis-benzylidene proteasome inhibitor for the treatment of cancer, diabetes and neurological disorders” (UP THERAPEUTICS, INC., priority 2017, dated 2021)
Entries after “also recorded” stand apart in the source; their conditions may differ.

Experiments:
[1] = tested on: NFκB reporter in 293 cells; assay: NFκB reporter assay in 293 cells stimulated with TNF-a; format: cell-based; settings: 293 cells carrying NFκB reporter construct
Excerpt: (§1) NFκB is constitutively activated in many cancers including high grade cervical intraepithelial neoplasia (CIN) and cervical cancer.

[2] = tested on: proteasome function (4Ub-FL reporter) in 293TT cells; assay: 4Ub-FL reporter assay of proteasome function in live cells; format: cell-based; settings: 293TT cells expressing 4Ub-FL; for 4Ub-FL reporter stabilization / bioluminescence increase (qualitative): dose dependent
Excerpt: (§2) To measure proteasome function in live cells, we utilized an engineered ubiquitin-firefly (4Ub-FL) reporter in which four copies of mutant ubiquitin (ubiquitin G76V) gene are fused to the N-terminus of the firefly luciferase (FL) gene. The results of this experiment, shown in FIG. 1, reveal that the 4Ub-FL reporter protein is rapidly degraded by the proteasome.
as §2, with “The” for “The results of this experiment, shown in FIG. 1, reveal that the”, “proteasome (FIG. 6). […] Treatment of Up109 produced a greater increase in the 4Ub-FL bioluminescence in a dose dependent manner.” for “proteasome.”

RPMI8226 = assay: MTT cell viability assay, RPMI8226; format: cell-based; settings: RPMI8226, Multiple Myeloma, 24 or 48 or 72 hours
Experimental: (§3) Briefly cancer cells incubated with Up compounds for the period of 24 or 48 or 72 hours and the cell viability was measured using MTT assay. IC50 of compounds listed in Table1.

HCC1806 = assay: MTT cell viability assay, HCC1806; format: cell-based; settings: HCC1806, Triple Negative Breast Cancer, 24 or 48 or 72 hours
Experimental: as §3

LNCaP = assay: MTT cell viability assay, LNCaP; format: cell-based; settings: Prostate Cancer, 24 or 48 or 72 hours
Experimental: as §3

RPN13 [3] = biological target: T1, RPN13 (Homo sapiens, UniProt Q16186); assay: RA190B probe competition assay, HeLa cell lysate; format: binding; settings: HeLa cell lysate pretreated with compound
T1 construct: HeLa cell lysate was pretreated with Up109 or Up117; endogenous in cells; host or cells: HeLa cell lysate
T1 sequence (Q16186 whole entry): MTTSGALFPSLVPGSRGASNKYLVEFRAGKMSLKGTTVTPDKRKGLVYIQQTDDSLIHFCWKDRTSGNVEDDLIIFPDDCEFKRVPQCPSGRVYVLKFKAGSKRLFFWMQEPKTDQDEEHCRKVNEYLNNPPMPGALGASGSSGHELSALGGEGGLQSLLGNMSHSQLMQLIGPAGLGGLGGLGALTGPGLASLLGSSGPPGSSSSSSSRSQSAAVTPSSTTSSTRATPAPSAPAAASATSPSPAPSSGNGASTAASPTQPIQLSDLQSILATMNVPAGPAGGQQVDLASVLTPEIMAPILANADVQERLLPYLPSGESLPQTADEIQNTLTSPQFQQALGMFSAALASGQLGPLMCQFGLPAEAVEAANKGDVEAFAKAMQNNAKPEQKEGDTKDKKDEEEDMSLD
Experimental: (§4) To identify the cellular target, a competition assay was performed using RA190B probe. […] We used RA190B as a probe to determine the Up compound binding to RPN13. HeLa cell lysate was pretreated with Up109 or Up117 and then subsequently treated with RA190B. Lysate was denatured under reduced conditions and proteins were separated on a gel and probed with HRPStreptavidin.

ES2 = assay: MTT cell viability assay, ES2; format: cell-based, human; settings: ES2, Ovarian Cancer, 24 or 48 or 72 hours
Experimental: as §3

[4] = tested on: human ovarian cancer ES2 xenograft (ES2-Lu); assay: ES2-Lu ovarian cancer xenograft, intraperitoneal; format: in vivo; settings: nude female mice, 10 mg/Kg on alternate days for two weeks
Experimental: To test the efficacy of Up109 to treat the human ovarian cancer ES2 xenograft model, the luciferase-expressing ES2 cells (ES2-Lu) were inoculated into peritoneal cavity of nude female mice (i.e. orthotopically). Two days after inoculation the mice were imaged for their basal luminescence activity and then randomized into two groups (n=10). First group was treated with the vehicle and the second group was treated with Up109 (10 mg/Kg) on alternate days for two weeks. Mice were imaged after the first and second week of treatment for their luciferase activity. […] Tumor burden in the vehicle group mice was excessive and sacrificed at the end of the treatment (FIG. 10).

[5] = Dose limiting toxicity studies; format: in vivo
Experimental: To identify the optimal dose that induces a clinical effect and operates with acceptable toxicity a set of experiments has been performed on female Balb/C strain mice with Up109. Individual groups of mice (n=3) were injected i.p. with increasing single doses of Up109 (3, 10, 20, 40 and 100 mg/Kg) and the endpoint evaluations included clinical observations and body weights. […] Another experiment was done with repeated i.p. doses of Up109 (40 mg/Kg, n=5) every other day for two weeks.

[6] = tested on: proteasome (4UbFL reporter) in muscle cells; assay: 4UbFL reporter in muscle of live mice, IVIS imaging; format: in vivo; settings: Balb/c mice, i.p. 40 mg/Kg; imaged 4 h, 24 h and 48 h post treatment
Experimental: To test for proteasome inhibition by Up109 in vivo, muscle cells of live Balb/c mice transduced with the 4UbFL reporter DNA construct by electroporation. After i.p. injection of luciferin, the enzymic activity of luciferase in the transfected muscle tissue was visualized as bioluminescence using an IVIS imager. At two days post electroporation of the 4UbFL DNA, mice were imaged and base line luminescence recorded. The control group (n=5) of mice was treated i.p. with vehicle alone and another group (n=5) treated i.p with Up109 (40 mg/Kg). After 4 h, 24 h and 48 h post treatment mice were again imaged and luminescence was quantified (FIG. 9).

[7] = tested on: CHOP-10 mRNA in ES2 cells; assay: CHOP-10 mRNA expression in ES2 cells; format: cell-based, human; settings: 12 h
Excerpt: (§5) Accumulation of unfolded proteins upon the inhibition of proteasome function rapidly induces endoplasmic reticulum (ER) stress. ER stress triggers an evolutionarily conserved series of signal-transduction events, which constitute the unfolded protein response (UPR). The UPR attempts to restore protein homeostasis by eliminating the accumulated unfolded proteins in the ER; however, if protein homeostasis cannot be restored, apoptosis is triggered. C/EBP homologous protein (CHOP) is elevated at the onset of UPR-induced programmed cell death.

HeLa = assay: MTT cell viability assay, HeLa; format: cell-based; settings: Cervical Cancer, 24 or 48 or 72 hours
Experimental: as §3

MDA-MB-231 = assay: MTT cell viability assay, MDA-MB-231; format: cell-based; settings: MDA-MB-231, Triple Negative Breast Cancer, 24 or 48 or 72 hours
Experimental: as §3

SKOV3-TR = assay: MTT cell viability assay, SKOV3-TR; format: cell-based; settings: for IC50: SKOV3-TR, Ovarian Cancer (taxol resistant), MTT, 24 or 48 or 72 hours; for difference in activity between SKOV3 and its taxol resistant line (SKOV3-TR): SKOV3 vs SKOV3-TR
Experimental: as §3

[8] = tested on: K48-linked polyubiquitinated proteins in HeLa cells; assay: anti-K48-linked ubiquitin immunoblot in HeLa cells; format: cell-based; settings: 4 hr treatment
Excerpt: Accumulation of poly ubiquitinated proteins is a general phenomenon of proteasome inhibition. We examined the impact of these compounds on the levels of polyubiquitinated proteins in HeLa cells by anti-K48-linked ubiquitin immunoblot analysis.

DU145 = assay: MTT cell viability assay, DU145; format: cell-based; settings: DU145, Prostate Cancer, 24 or 48 or 72 hours
Experimental: as §3

OV2008 cancer cells = assay: Colony formation, OV2008; format: cell-based; settings: corresponding to IC50 values
OVCAR3 = assay: MTT cell viability assay, OVCAR3; format: cell-based; settings: OVCAR3, Ovarian Cancer, 24 or 48 or 72 hours
Experimental: as §3

SKOV3 = assay: MTT cell viability assay, SKOV3; format: cell-based; settings: SKOV3, Ovarian Cancer, 24 or 48 or 72 hours
Experimental: as §3

OVCAR5 = assay: MTT cell viability assay, OVCAR5; format: cell-based; settings: OVCAR5, Ovarian Cancer, 24 or 48 or 72 hours
Experimental: as §3

PC-3 = assay: MTT cell viability assay, PC-3; format: cell-based; settings: PC-3, Prostate Cancer, 24 or 48 or 72 hours
Experimental: as §3

ES2 cells = assay: Annexin-V staining by FACS of ES2 cells; format: cell-based, human; settings: 12 h
Experimental: FIG. 8: (A) CHOP-10 quantification in ES2 cells treated with Up109 for 12 h; (B) Annexin-V staining by FACS analysis of ES2 cells treated with Up109 and Bortezomib for 12 h.
as §5

A2780 = assay: MTT cell viability assay, A2780; format: cell-based; settings: A2780, Ovarian Cancer, 24 or 48 or 72 hours
Experimental: as §3

IkB-a in HeLa cells = assay: IkB-a stabilization in HeLa cells with TNF-a; format: cell-based; settings: in the presence of TNF-a
Excerpt: as §1

MM.1S = assay: MTT cell viability assay, MM.1S; format: cell-based; settings: Multiple Myeloma, 24 or 48 or 72 hours
Experimental: as §3

RPN13 [9] = biological target: T1, RPN13; assay: RA190B probe competition assay, OV2008 cell lysate; format: binding; settings: compound 25 μM, RA190B 5 μM
Experimental: as §4, with “compounds” for “compound”, “OV2008” for “HeLa”, “Up compounds (25 μM)” for “Up109 or Up117”, “RA190B (5 μM).” for “RA190B.”, “HRP Streptavidin.” for “HRPStreptavidin.”

HepG2 = assay: MTT cell viability assay, HepG2; format: cell-based; settings: HepG2, Liver Cancer, 24 or 48 or 72 hours
Experimental: as §3

OV2008 = assay: MTT cell viability assay, OV2008; format: cell-based; settings: OV2008, Ovarian Cancer, 24 or 48 or 72 hours
Experimental: as §3

RPMI8226-R = assay: MTT cell viability assay, RPMI8226-R; format: cell-based; settings: Multiple Myeloma, 24 or 48 or 72 hours
Experimental: as §3

HS578T = assay: MTT cell viability assay, HS578T; format: cell-based; settings: Triple Negative Breast Cancer, 24 or 48 or 72 hours
Experimental: as §3

A2780 cancer cells = assay: Colony formation, A2780; format: cell-based; settings: corresponding to IC50 values
[10] = tested on: HFF(primary human foreskin fibroblast); assay: MTT cell viability assay, HFF; format: cell-based; settings: Normal Cell line, 24 or 48 or 72 hours
Experimental: as §3

SMILES | NFκB reporter activity after stimulation with TNF-a [1] | increase in 4Ub-FL bioluminescence compared to before treatment [2] | IC50 (RPMI8226) [µM] | IC50 (HCC1806) [µM] | IC50 (LNCaP) [µM] | competition with RA190B for binding to RPN13 (RPN13 [3]) | IC50 (ES2) [µM] | IC50 (HeLa) [µM] | IC50 (MDA-MB-231) [µM] | IC50 (SKOV3-TR) [µM] | difference in activity between SKOV3 and its taxol resistant line (SKOV3-TR) (SKOV3-TR) | levels of K48-linked polyubiquitinated proteins [8] | IC50 (DU145) [µM] | colony formation (OV2008 cancer cells) | IC50 (SKOV3) [µM] | IC50 (OVCAR5) [µM] | IC50 (PC-3) [µM] | IC50 (A2780) [µM] | stabilization of IkB-a (IkB-a in HeLa cells) | IC50 (MM.1S) [µM] | also measured
Cl.N[C@@H](Cc1ccccc1)C(=O)N1C/C(=C/c2ccc(Cl)c(Cl)c2)C(=O)/C(=C\c2ccc(Cl)c(Cl)c2)C1 [RA190, reference compound] | significant dose-dependent decrease | fivefold increase |  |  |  |  |  |  |  |  |  |  |  |  |  |  |  |  |  |  | 
C=CC(=O)N1CCC2(CC1)C(=Cc1ccc([N+](=O)[O-])cc1)C(=O)C2=Cc1ccc([N+](=O)[O-])cc1 [Up109] | significant dose-dependent decrease | thirteen-fold increase | 0.123 | 0.042 | 0.065 | disappearance of RA190B labeling | 0.022 | 0.075 | 0.038 | 0.058 | similarly active | dramatically increased | 0.077 | significantly blocked colony formation | 0.045 | 0.019 | 0.057 | 0.013 | Stabilization of IkB-a was observed | 0.035 | weight loss and observable side effects [4]: no weight loss and any observable side effects; tumor burden compared to the vehicle ([4]; ES2-Lu i.p.): significantly reduced the tumor burden; toxicities/weight loss, repeated dose ([5]; Balb/C mice, i.p. 40 mg/Kg every other day for two weeks): No observable toxicities/weight loss; clinical observations and body weights, single dose ([5]; female Balb/C mice, single i.p. doses 3, 10, 20, 40 and 100 mg/Kg): No clinically apparent sign of adverse effect; 4UbFL reporter stabilization in vivo (bioluminescence) [6]: Stabilized; CHOP-10 mRNA expression [7]: rapidly up-regulated; IC50 (OVCAR3): 0.021 µM; Annexin-V positive cells (apoptosis) (ES2 cells): elevation of apoptosis; 4Ub-FL reporter stabilization / bioluminescence increase (qualitative) [2]: greater increase in the 4Ub-FL bioluminescence than RA190; also recorded: stabilization and an increase in luciferase activity; competition with RA190B for binding to RPN13 (RPN13 [9]): Disappearance of RA190B labeling; IC50 (HepG2): 0.118 µM; IC50 (OV2008): 0.034 µM; IC50 (RPMI8226-R): 0.061 µM; IC50 (HS578T): 0.017 µM; colony formation (A2780 cancer cells): significantly blocked colony formation; IC50 [10]: > 1.25 µM
CC(=O)O[C@H]1C(=O)[C@@]2(C)[C@H]([C@H](OC(=O)c3ccccc3)[C@]3(O)C[C@H](OC(=O)[C@H](O)[C@@H](NC(=O)c4ccccc4)c4ccccc4)C(C)=C1C3(C)C)[C@]1(OC(C)=O)CO[C@@H]1C[C@@H]2O [Taxol, reference compound] |  |  |  |  |  |  |  |  |  |  | 7 fold |  |  |  |  |  |  |  |  |  | 
O=C(CCl)NC(Cc1ccccc1)C(=O)N1CCC2(CC1)C(=Cc1ccc([N+](=O)[O-])cc1)C(=O)C2=Cc1ccc([N+](=O)[O-])cc1 (stereo not drawn) [Up117] | significant dose-dependent decrease |  | 0.14 | 0.071 | 0.087 | disappearance of RA190B labeling | 0.041 | 0.089 | 0.056 | 0.202 | similarly active | dramatically increased | 0.13 | significantly blocked colony formation | 0.157 | 0.037 | 0.074 | 0.022 | Stabilization of IkB-a was observed | 0.042 | 4Ub-FL reporter stabilization / bioluminescence increase (qualitative) [2]: greater increase in the 4Ub-FL bioluminescence than RA190; competition with RA190B for binding to RPN13 (RPN13 [9]): Disappearance of RA190B labeling; IC50 (HepG2): 0.447 µM; IC50 (OV2008): 0.047 µM; IC50 (RPMI8226-R): 0.078 µM; IC50 (HS578T): 0.032 µM; colony formation (A2780 cancer cells): significantly blocked colony formation; IC50 [10]: > 1.25 µM
